Legend:
[1] = tested on: gastric and colon distention; conditions: animal models; cited from earlier work
[2] = tested on: IBS-D, IBS-C and IBS-A patients; assay: Example 2: 12-week randomized, double-blind, dose-ranging, placebo-controlled fixed-dose asimadoline study in IBS; format: in vivo, human; conditions: for urgency: all three months; for improvement over placebo in percent number of months with adequate relief / percent number of months with adequate relief of IBS pain or discomfort: all IBS subjects with moderate or severe pain
Experimental: Diarrhea-predominant (IBS-D), constipation-predominant (IBS-C), and alternating IBS (IBS-A) patients were recruited from 120 sites in the United States. Patients underwent a two week screening period to ensure adequate symptoms and compliance with the interactive voice response system (IVRS) data collection system, followed by twelve weeks of treatment and a four week follow-up period. Patients received identical appearing placebo, 0.15 mg, 0.5 mg or 1.0 mg asimadoline tablets b.i.d. for the 12 week treatment period. During screening, treatment and follow-up patients entered data every day on the IVRS.
The primary endpoint was the number of months a patient was a responder for adequate relief, where the primary measure was the question, “In the past 7 days have you had adequate relief of your IBS pain or discomfort?” This measure was asked once every 7 days and a monthly responder replied “yes” at least 3 weeks per month. Numerous secondary endpoints, abdominal pain or discomfort, stool frequency, urgency, bloating, stool consistency, adequate relief of IBS symptoms and straining were also collected. Additionally, adverse clinical events, laboratory test data and electrocardiograms (ECGs) were collected.
Of the 596 subjects who were randomized, 344 reported baseline pain scores of 2.0 or higher. The pain score was a self reported score on a scale of 0-3, where 0=no pain, 1=mild pain, 2=moderate pain and 3=severe pain Subjects having scores of 2.0 or higher were categorized as having moderate or severe pain. Of the 344 moderate or severe pain subjects, 104 were classified as having IBS-D, 114 IBS-A and 126 IBS-C.

mu opiate receptor = mu opiate receptor (Homo sapiens, UniProt P35372); assay: selectivity: IC50 at mu opiate receptor relative to kappa; format: binding; conditions: ratio kappa:mu:delta
delta opiate receptor = delta opiate receptor (Homo sapiens, UniProt P41143); assay: selectivity: IC50 at delta opiate receptor relative to kappa; format: binding; conditions: ratio kappa:mu:delta
[3] = cited from earlier work
kappa-opiate receptor = kappa-opiate receptor (Homo sapiens, UniProt P41145); conditions: read-out: affinity for the kappa-opiate receptor, IC50; cited from earlier work
[4] = moisture, heat, aerial oxygen, light; cited from earlier work
patients with IBS = assay: Example 1: randomized, double-blind, placebo controlled 4-week on-demand asimadoline study in participants with IBS; conditions: for Δ Pain intensity (mean ± SE): VAS, 2 hours after first dose
[5] = cited from earlier work; remark: listed apart in the source
IBS patients = conditions: Bardhan et al., Aliment Pharmacol Ther 2000; 14:23-34; cited from earlier work

Chain of kappa-opiate receptor (P41145 whole entry): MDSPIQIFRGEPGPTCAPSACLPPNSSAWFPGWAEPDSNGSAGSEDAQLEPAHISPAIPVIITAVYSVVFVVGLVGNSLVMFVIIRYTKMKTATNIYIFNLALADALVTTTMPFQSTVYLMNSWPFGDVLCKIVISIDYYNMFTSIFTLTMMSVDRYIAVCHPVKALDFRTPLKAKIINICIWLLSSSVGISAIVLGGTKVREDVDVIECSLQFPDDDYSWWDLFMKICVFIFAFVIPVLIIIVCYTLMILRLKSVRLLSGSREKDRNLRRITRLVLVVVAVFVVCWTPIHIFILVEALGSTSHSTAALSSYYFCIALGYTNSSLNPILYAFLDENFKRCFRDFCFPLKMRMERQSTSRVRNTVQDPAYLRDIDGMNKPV
Chain of mu opiate receptor (P35372 whole entry): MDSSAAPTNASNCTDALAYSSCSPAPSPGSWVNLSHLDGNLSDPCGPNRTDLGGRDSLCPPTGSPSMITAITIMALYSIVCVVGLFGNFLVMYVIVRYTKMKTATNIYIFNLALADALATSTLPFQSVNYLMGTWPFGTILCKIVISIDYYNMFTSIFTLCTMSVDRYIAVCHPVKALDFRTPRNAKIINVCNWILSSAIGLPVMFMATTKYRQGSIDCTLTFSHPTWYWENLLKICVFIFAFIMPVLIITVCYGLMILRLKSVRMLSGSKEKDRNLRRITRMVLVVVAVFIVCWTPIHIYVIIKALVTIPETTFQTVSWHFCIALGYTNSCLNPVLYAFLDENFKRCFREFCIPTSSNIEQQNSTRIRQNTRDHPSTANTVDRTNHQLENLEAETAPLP
Chain of delta opiate receptor (P41143 whole entry): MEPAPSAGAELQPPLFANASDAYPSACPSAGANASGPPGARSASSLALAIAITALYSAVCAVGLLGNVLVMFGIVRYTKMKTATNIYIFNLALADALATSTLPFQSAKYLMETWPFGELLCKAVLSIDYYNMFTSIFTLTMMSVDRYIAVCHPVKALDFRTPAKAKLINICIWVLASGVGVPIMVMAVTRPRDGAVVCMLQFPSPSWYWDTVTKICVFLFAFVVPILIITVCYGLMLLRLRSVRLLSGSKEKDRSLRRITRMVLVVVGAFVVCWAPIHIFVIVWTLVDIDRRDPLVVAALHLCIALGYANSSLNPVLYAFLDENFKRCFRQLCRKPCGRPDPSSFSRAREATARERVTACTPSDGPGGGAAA

For `CN(C(=O)C(c1ccccc1)c1ccccc1)[C@H](CN1CC[C@H](O)C1)c1ccccc1.Cl` [Asimadoline, N-[(1S)-2-[(3S)-3-hydroxypyrrolidin-1-yl]-1-phenylethyl]-N-methyl-2,2-diphenylacetamide, hydrochloride], the “sensation responses to gastric and colon distention” value [1] is given as “reduce sensation responses”, the “Adverse events: Abdominal pain” value ([2]; 0.15 mg b.i.d.) is given as 5.4% and the “Adverse events: Constipation” value ([2]; 0.15 mg b.i.d.) is given as 12.8%. For the same compound, the “Adverse events: Diarrhea” value ([2]; 0.15 mg b.i.d.) was 13.4%, the “Adverse events: Dizziness” value ([2]; 0.15 mg b.i.d.) was 2.7% and the “Adverse events: Headache” value ([2]; 0.15 mg b.i.d.) was 9.4%. The “Adverse events: Nausea” value ([2]; 0.15 mg b.i.d.) was 5.4%, the “Adverse events: Sinusitis” value ([2]; 0.15 mg b.i.d.) was 4.7% and the “Adverse events: Abdominal pain” value ([2]; 0.5 mg b.i.d.) was 4.6%. The “Adverse events: Constipation” value ([2]; 0.5 mg b.i.d.) was 10.5%, the “Adverse events: Diarrhea” value ([2]; 0.5 mg b.i.d.) was 5.9% and the “Adverse events: Dizziness” value ([2]; 0.5 mg b.i.d.) was 1.3%. For the same compound, the “Adverse events: Headache” value ([2]; 0.5 mg b.i.d.) was 4.6%, the “Adverse events: Nausea” value ([2]; 0.5 mg b.i.d.) was 8.6% and the “Adverse events: Sinusitis” value ([2]; 0.5 mg b.i.d.) was 2.6%. For the same compound, the “Adverse events: Abdominal pain” value ([2]; 1.0 mg b.i.d.) was 4.2%, the “Adverse events: Constipation” value ([2]; 1.0 mg b.i.d.) was 7.6% and the “Adverse events: Diarrhea” value ([2]; 1.0 mg b.i.d.) was 11.1%. For the same compound, the “Adverse events: Dizziness” value ([2]; 1.0 mg b.i.d.) was 2.1%, the “Adverse events: Headache” value ([2]; 1.0 mg b.i.d.) was 5.6% and the “Adverse events: Nausea” value ([2]; 1.0 mg b.i.d.) was 2.8%. The “Adverse events: Sinusitis” value ([2]; 1.0 mg b.i.d.) was 6.3%, the “serious clinical or laboratory adverse events related to the treatment” value ([2]; 0.15, 0.5 or 1.0 mg b.i.d., 12 weeks) was “No serious clinical or laboratory adverse events” and the pain scores ([2]; IBS-A subjects at these dosages) was “No statistically significant improvement”. For the same compound, the “percent months with adequate relief of IBS pain or discomfort” value ([2]; IBS-A, moderate or severe pain, 1.0 mg b.i.d., placebo 27%, p=0.022) was 50%, the “proportion of months with adequate relief of overall IBS symptoms” value (“proportion of months” for short) ([2]; IBS-A, moderate or severe pain, 1.0 mg b.i.d., placebo 30%, p=0.032) was 57% and the “percentage of monthly responders (adequate relief of pain or discomfort)” value (shortened to “percentage of monthly responders”) ([2]; IBS-A, 1.0 mg b.i.d., first month, placebo 19%, p=0.017) was 46%. For the same compound, the “abdominal pain or discomfort associated with IBS” value ([2]; IBS-C subjects with moderate or severe pain) was “no statistically significant improvement”, the stool consistency ([2]; IBS-D and IBS-C subjects, any of the three dosages) was “no statistically significant changes” and the bloating ([2]; IBS-D, baseline pain scores ≧2.0, 1.0 mg, second month) was “statistically significant reductions”. For the same compound, the “percent months with adequate relief of IBS pain or discomfort” value ([2]; IBS-D, moderate or severe pain, 0.5 mg b.i.d., placebo 20%, p=0.011) was 47%, the “proportion of months” value ([2]; IBS-D, moderate or severe pain, 0.5 mg b.i.d., placebo 23%, p=0.038) was 47% and the urgency ([2]; IBS-D, moderate or severe pain, 0.5 mg) was “statistically significant reductions”. The daily stool frequency ([2]; IBS-D, moderate or severe pain, 0.5 mg, from week 3 to end of treatment) was “dramatic decrease”, the bloating ([2]; IBS-D, moderate or severe pain, 0.5 mg, second and third months) was “Significant reductions” and the “proportion of months” value ([2]; IBS-D, moderate or severe pain, 1.0 mg b.i.d., placebo 23%, p=0.039) was 43%. For the same compound, the urgency ([2]; IBS-D, moderate or severe pain, 1.0 mg) was “statistically significant reductions”, the “improvement in the percentage of pain-free days over placebo” value ([2]; IBS-D, pain scores ≧2.0, 0.5 mg b.i.d., weeks 1-12) was about 30% and the “results in female versus male IBS-D subjects (adequate relief)” value ([2]; IBS-D, 0.5 mg) was “highly similar results”. For the same compound, the “percentage of monthly responders” value ([2]; IBS-D, 0.5 mg b.i.d., month 1, placebo 20%, p=0.045) was 48%, the “percentage of monthly responders” value ([2]; IBS-D, 0.5 mg b.i.d., month 2, placebo 18%, p=0.010) was 52% and the “percentage of monthly responders” value ([2]; IBS-D, 0.5 mg b.i.d., month 3, placebo 27%, p=0.010) was 50%. The pain scores ([2]; IBS-D, 0.5 mg, every week starting at week 3 and every month) was “statistically significant improvement”, the “more pain free days compared to placebo” value ([2]; IBS-D, 0.5 mg, over the 3 month study) was 21 days and the pain scores ([2]; IBS-D, 1.0 mg, every month and six of the twelve weeks) was “statistically significant improvement”. The “improvement over placebo in percent number of months with adequate relief” value ([2]; 0.5 mg b.i.d.) was 17%, the “percent number of months with adequate relief of IBS pain or discomfort” value ([2]; 0.5 mg b.i.d., placebo 23%, p=0.006) was 40% and the “improvement over placebo in percent number of months with adequate relief” value ([2]; 1.0 mg b.i.d.) was 17%. The “percent number of months with adequate relief of IBS pain or discomfort” value ([2]; 1.0 mg b.i.d., placebo 23%, p=0.005) was 40%, the tolerability ([2]; fixed dose, 12 weeks) was “well tolerated” and the “ratio of IC50 values, mu relative to kappa (kappa = 1)” value (mu opiate receptor) was about 501. The “ratio of IC50 values, delta relative to kappa (kappa = 1)” value (delta opiate receptor) was about 498, the solubility in ethanol ([3]; ethanol) was 5400 µg/mL and the solubility in water ([3]; water) was 11600 µg/mL. For the same compound, the IC50 (kappa-opiate receptor) was 1.2 nM, the “stability of the substance” value [4] was “slightly sensitive to moisture, but stable against heat, aerial oxygen and light” and the “Proportion of days with adequate relief of symptoms (mean ± SE)” value (“Proportion of days … (mean ± SE)” for short) (patients with IBS; IBS-A) was 0.46 ± 0.08. The “change in bowel movements per day, corrected for placebo change from baseline” value (shortened to “change in bowel movements per day”) (patients with IBS; IBS-A) was “increase”, the “delta pain intensity scores relative to placebo” value (patients with IBS; IBS-A (alternators), p=0.003) was “significantly better than placebo” and the “Δ Pain intensity (mean ± SE)” value (patients with IBS; IBS-A, unadjusted p = 0.003 vs placebo) was 37.8 ± 3.7 mm. For the same compound, the “Δ mean # stools, treatment compared to baseline” value (patients with IBS; IBS-A, on-demand, 4 weeks) was 0.0 ± 0.1, the “Δ mean ease of passage, treatment compared to baseline” value (shortened to “Δ mean ease … compared to baseline”) (patients with IBS; IBS-A, on-demand, 4 weeks) was 0.0 ± 0.1 and the “Δ mean stool form, treatment compared to baseline” value (patients with IBS; IBS-A, on-demand, 4 weeks) was 0.2 ± 0.2. For the same compound, the “Proportion of days … (mean ± SE)” value (patients with IBS; IBS-C) was 0.11 ± 0.07, the “change in bowel movements per day” value (patients with IBS; IBS-C) was “increase” and the “Δ Pain intensity (mean ± SE)” value (patients with IBS; IBS-C) was 23.8 ± 4.0 mm. For the same compound, the “Δ mean ease … compared to baseline” value (patients with IBS; IBS-C, on-demand, 4 weeks) was −0.1 ± 0.1, the “Δ mean stool form, treatment compared to baseline” value (patients with IBS; IBS-C, on-demand, 4 weeks) was 0.0 ± 0.2 and the “Proportion of days … (mean ± SE)” value (patients with IBS; IBS-D) was 0.45 ± 0.08. For the same compound, the “change in bowel movements per day” value (patients with IBS; IBS-D) was “decrease”, the “Δ Pain intensity (mean ± SE)” value (patients with IBS; IBS-D) was 25.0 ± 2.9 mm and the “Δ mean # stools, treatment compared to baseline” value (patients with IBS; IBS-D, on-demand, 4 weeks) was −0.3 ± 0.1. The “Δ mean ease … compared to baseline” value (patients with IBS; IBS-D, on-demand, 4 weeks) was −0.1 ± 0.1, the “Δ mean stool form, treatment compared to baseline” value (patients with IBS; IBS-D, on-demand, 4 weeks) was −0.1 ± 0.2 and the “Adverse events: Body as a whole” value (patients with IBS; on-demand, 4 weeks) was 15.00%. The “Adverse events: Central and peripheral nervous system” value (patients with IBS; on-demand, 4 weeks) was 48.33%, the “Adverse events: Gastrointestinal” value (patients with IBS; on-demand, 4 weeks) was 16.67% and the “Adverse events: Genitourinary” value (patients with IBS; on-demand, 4 weeks) was 1.67%. For the same compound, the “Adverse events: Musculoskeletal” value (patients with IBS; on-demand, 4 weeks) was 6.67%, the “Adverse events: Psychiatric” value (patients with IBS; on-demand, 4 weeks) was 15.00% and the “Adverse events: Respiratory” value (patients with IBS; on-demand, 4 weeks) was 33.33%. For the same compound, the “serious clinical or laboratory adverse events” value (patients with IBS; on-demand, 4 weeks) was “no serious clinical or laboratory adverse events”, the tolerability (patients with IBS; on-demand, 4 weeks) was “well tolerated” and the bioavailability ([5]; fasting subjects) was 50%. For the same compound, the “effect of eating on bioavailability” value ([5]; food interaction studies) was “eating does not substantially impact bioavailability”, the half-life ([5]; in vivo) was 2 to 3 h and the “penetration of the blood-brain barrier” value ([5]; in vivo) was “poor penetration of the blood-brain barrier”.
In the case of `Cc1[nH]cnc1CN1CCc2c(c3ccccc3n2C)C1=O` [LOTRONEX], the “improvement in the percentage of pain-free days” value (IBS patients) is listed as 10%.

Source: patent US8877800B2, “Kappa-opiate agonists for the treatment of diarrhea-predominant irritable bowel syndrome” (Tioga Pharmaceuticals, Inc., priority 2007, dated 2014)
